Data from patent US20020151572A1, “PHARMACEUTICAL USES FOR NOS INHIBITORS” (priority 1998, published 2002).
Counter-ions that a name gives are not always drawn.

melting point: 148 to 165 °C
SMILES: CC(C)Oc1cc(C(O)CN2CCN(CCc3ccccc3)CC2)ccc1-c1cccc(N)n1 (stereo not shown) (as salt: hydrochloride) [Example 1, 1-[4-(6-AMINO-PYRIDIN-2-YL)-3-ISOPROPOXY-PHENYL]-2-(4-PHENETHYL-PIPERAZIN-1-YL)-ETHANOL]
